Data as given in patent publication US11078207B2, “Substituted pyrrolo[2,3-d]pyrimidines as HER2 inhibitors” (TAIHO PHARMACEUTICAL CO., LTD., priority 2019, dated 2021).

How the values were obtained:
[1] = molecular target: HER2 exon 20 insertion mutant (HER2ex20insYVMA, A775_G776insYVMA) (Homo sapiens, UniProt P04626, DUP772-775); test: Inhibitory action (in vitro) against HER2 exon 20 insertion mutant phosphorylation activity; assay type: biochemical; settings: 30 min pre-incubation, ATP 200 μM, 25° C. 220 minutes
HER2 exon 20 insertion mutant (HER2ex20insYVMA, A775_G776insYVMA), sequence (P04626 with tags, fused parts or gaps DUP772-775): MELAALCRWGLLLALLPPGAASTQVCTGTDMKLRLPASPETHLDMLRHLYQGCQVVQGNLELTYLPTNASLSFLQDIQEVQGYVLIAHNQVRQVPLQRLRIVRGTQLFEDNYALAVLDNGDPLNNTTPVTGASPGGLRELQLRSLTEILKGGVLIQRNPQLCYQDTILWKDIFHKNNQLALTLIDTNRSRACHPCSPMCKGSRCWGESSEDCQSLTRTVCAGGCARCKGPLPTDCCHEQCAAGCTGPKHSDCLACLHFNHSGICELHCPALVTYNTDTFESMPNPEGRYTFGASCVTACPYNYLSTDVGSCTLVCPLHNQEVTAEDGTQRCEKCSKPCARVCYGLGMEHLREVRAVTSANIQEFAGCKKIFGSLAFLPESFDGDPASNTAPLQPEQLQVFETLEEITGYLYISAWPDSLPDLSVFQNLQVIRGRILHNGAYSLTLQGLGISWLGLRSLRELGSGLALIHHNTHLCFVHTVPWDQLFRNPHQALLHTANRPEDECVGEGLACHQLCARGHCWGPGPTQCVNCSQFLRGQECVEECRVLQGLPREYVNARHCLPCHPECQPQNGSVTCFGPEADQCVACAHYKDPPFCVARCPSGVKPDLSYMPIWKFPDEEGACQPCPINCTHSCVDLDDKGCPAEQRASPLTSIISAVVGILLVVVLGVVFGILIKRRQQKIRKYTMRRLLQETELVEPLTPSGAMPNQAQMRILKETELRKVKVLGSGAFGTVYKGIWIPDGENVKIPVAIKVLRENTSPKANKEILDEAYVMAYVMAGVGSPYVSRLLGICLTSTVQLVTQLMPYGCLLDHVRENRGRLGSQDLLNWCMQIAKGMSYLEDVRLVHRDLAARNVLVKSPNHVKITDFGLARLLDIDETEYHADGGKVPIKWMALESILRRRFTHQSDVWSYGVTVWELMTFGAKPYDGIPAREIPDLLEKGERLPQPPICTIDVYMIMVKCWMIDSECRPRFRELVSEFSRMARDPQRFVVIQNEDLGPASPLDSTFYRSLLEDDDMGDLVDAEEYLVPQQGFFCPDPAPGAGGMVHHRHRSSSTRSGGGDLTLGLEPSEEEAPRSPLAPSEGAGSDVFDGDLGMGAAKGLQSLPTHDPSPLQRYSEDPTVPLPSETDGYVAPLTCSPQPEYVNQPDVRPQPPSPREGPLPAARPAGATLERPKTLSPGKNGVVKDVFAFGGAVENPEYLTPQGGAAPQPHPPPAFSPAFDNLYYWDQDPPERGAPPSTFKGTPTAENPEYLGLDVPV
Description: In order to determine conditions for a method of measuring the in vitro inhibitory activity of a compound against HER2 exon 20 insertion mutant phosphorylation activity, as in the case of HER2, ProfilerPro Peptide 22 was used as a substrate. A purified recombinant human HER2 exon 20 insertion mutant (A775_G776insYVMA) protein is shown in SEQ ID NO: 7, and was purchased from SignalChem. Upon the measurement of the inhibitory activity of the compound, first, the compound of the present invention was diluted stepwise with dimethyl sulfoxide (DMSO). Subsequently, the HER2 exon 20 insertion mutant protein and the compound of the present invention in DMSO solution (final concentration of DMSO: 5%) were added into a buffer for the kinase reaction (13.5 mM Tris (pH 7.5), 2 mM dithiothreitol, and 0.009% Tween 20), and the obtained mixture was then pre-incubated at 25° C. for 30 minutes. Thereafter, the substrate peptide (final concentration: 1 μM), manganese chloride (final concentration: 25 mM), magnesium chloride (final concentration: 20 mM), and ATP (final concentration: 200 μM) were added into the reaction mixture, and the thus obtained mixture was then incubated at 25° C. for 220 minutes, so that the kinase reaction was carried out. To the reaction solution, EDTA was added to a final concentration of 30 mM, so as to terminate the reaction. Finally, using LabChip (registered trademark) EZ Reader II (PerkinElmer), an unphosphorylated substrate peptide (S) and a phosphorylated peptide (P) were separated and detected according to microchannel capillary electrophoresis.

[2] = system: NCI-N87 cells; test: Growth inhibitory activity against HER2 expressing cell line NCI-N87; assay type: cell-based; settings: Homo sapiens, NCI-N87, 72 h; 3 days, CellTiter-Glo 2.0
Description: NCI-N87 cells as a HER2 overexpressing human stomach cancer cell line (American Type Culture Collection, Cat No. ATCC (registered trademark) CRL-5822) were suspended in an RPMI640 medium (Wako Pure Chemical Industries, Ltd.) supplemented with 10% fetal bovine serum. Subsequently, the cell suspension was seeded in each well of a 96-well flat-bottom microplate, and was then cultured in a 5% carbon dioxide gas-containing culture vessel at 37° C. for 1 day. Thereafter, the compound of the present invention was dissolved in DMSO, and the compound was diluted to 1000 times the final concentration in DMSO. The compound in the DMSO solution was diluted with the medium used in the suspension of the cells, and the obtained solution was then added to each well of the culture plate, so that the final concentration of DMSO became 0.1%. Regarding a control well, DMSO was diluted with the medium used in the suspension of the cells, and the obtained solution was then added to each well of the culture plate, so that the final concentration of DMSO became 0.1%. After addition of a drug solution, the obtained mixture was further cultured in the 5% carbon dioxide gas-containing culture vessel at 37° C. for 3 days. After completion of the culture for 3 days in the presence of the compound, the cells were counted using CellTiter-Glo 2.0 (manufactured by Promega) in accordance with the protocols recommended by Promega. The growth inhibition percentage was calculated according to the following equation. […] Growth inhibitory percentage (%)=(C−T)/(C)×100 T: Emission intensity from the well to which the test compound was added C: Emission intensity from the well to which the test compound was not added

[3] = molecular target: Ba/F3-HER2insYVMA cells (Homo sapiens, UniProt P04626, DUP772-775, cells depend on it); test: Growth inhibitory activity against HER2 exon 20 insertion mutant expressing cell line; assay type: cell-based, mouse; settings: 3 days, CellTiter-Glo 2.0, read-out: HER2ex20insYVMA cell growth inhibitory activity IC50 value
Ba/F3-HER2insYVMA cells, sequence (P04626 with tags, fused parts or gaps DUP772-775): as above
Description: Growth inhibitory activity against the HER2 exon 20 insertion mutant was measured using Ba/F3 cells that were a mouse B lymphocyte precursor cell line, into which a human HER2 exon 20 insertion mutant gene had been introduced. The Ba/F3 cells were maintained in an RPMI-1640 medium (Thermo Fisher Scientific) supplemented with 10% fetal bovine serum (FBS), 100 U/mL penicillin, 100 μg/mL streptomycin (Thermo Fisher Scientific) and 1 ng/mL mouse interleukin-3 (mIL-3) (CST).
Upon evaluation of cell growth inhibitory activity, the Ba/F3-HER2insYVMA cells were suspended in an RPMI-1640 medium supplemented with 10% FBS, 100 U/mL penicillin, and 100 μg/mL streptomycin. The cell suspension was seeded in each well of a 96-well flat-bottom microplate, and was then cultured in a 5% carbon dioxide gas-containing culture vessel at 37° C. for 1 day. The compound of the present invention was dissolved in DMSO, and was then diluted with DMSO or the medium used in the suspension of the cells. The obtained solution was then added to each well of the culture plate, so that the final concentration of DMSO became 0.2%. The obtained mixture was further cultured in the 5% carbon dioxide gas-containing culture vessel at 37° C. for 3 days. After completion of the culture for 3 days in the presence of the compound, the cells were counted using CellTiter-Glo 2.0 (manufactured by Promega), and the growth inhibition percentage was then calculated according to the following equation. […] Growth inhibitory percentage (%)=(C−T)/(C)×100 T: Emission intensity from the well to which the test compound was added C: Emission intensity from the well to which the test compound was not added

[4] = system: SK-BR-3 cells; test: Growth inhibitory activity against HER2 expressing cell line SK-BR-3; assay type: cell-based; settings: Homo sapiens, SK-BR-3, 72 h; 3 days, CellTiter-Glo 2.0
Description: SK-BR-3 cells as a HER2 overexpressing human breast cancer cell line were suspended in a McCoy's 5a medium (manufactured by Life Technologies) supplemented with 10% fetal bovine serum. The cell suspension was seeded in each well of a 384-well flat-bottom microplate, and was then cultured in a 5% carbon dioxide gas-containing culture vessel at 37° C. for 1 day. Thereafter, the compound of the present invention was dissolved in DMSO, and the compound was diluted to 500 times the final concentration in DMSO. The compound in the DMSO solution was diluted with DMSO solution or the medium used in the suspension of the cells, and the obtained solution was then added to each well of the culture plate so that the final concentration of DMSO was 0.2%. The obtained mixture was further cultured in the 5% carbon dioxide gas-containing culture vessel at 37° C. for 3 days. After completion of the culture for 3 days in the presence of the compound, the cells were counted using CellTiter-Glo 2.0 (manufactured by Promega), and the growth inhibition percentage was then calculated according to the following equation. […] Growth inhibitory percentage (%)=(C−T)/(C)×100 T: Emission intensity from the well to which the test compound was added C: Emission intensity from the well to which the test compound was not added

| IC50 [1] [nM] | GI50 [3] [nM] | IC50 [4] [nM] | Compound | IC50 [2] [nM] |
| --- | --- | --- | --- | --- |
| 0.34 | 17 | 9.3 | C=CC(=O)N1C[C@H](n2c(C#CC)c(C(=O)N[C@H](C)c3cc(F)cc(F)c3)c3c(N)ncnc32)C[C@@H]1C [Example 1, 7-(R)-((3R,5S)-1-acryloyl-5-methylpyrrolidin-3-yl)-4-amino-N—((R)-1-(3,5-difluorophenyl)ethyl)-6-(prop-1-yn-1-yl)-7H-pyrrolo[2,3-d]pyrimidine-5-carboxamide] | 10.7 |
| < 0.3 | 12 | 2.8 | C=CC(=O)N1C[C@H](n2c(C#CC)c(C(=O)N[C@H](C)c3ccccc3)c3c(N)ncnc32)C[C@@H]1C [Example 2, 7-((3R,5S)-1-acryloyl-5-methylpyrrolidin-3-yl)-4-amino-N—((R)-1-phenylethyl)-6-(prop-1-yn-1-yl)-7H-pyrrolo[2,3-d]pyrimidine-5-carboxamide] | 3 |
| < 0.3 | 25 | 4.5 | C=CC(=O)N1C[C@H](n2c(C#CC)c(C(=O)NC(C)(C)c3ccccc3)c3c(N)ncnc32)C[C@@H]1C [Example 3, 7-((3R,5S)-1-acryloyl-5-methylpyrrolidin-3-yl)-4-amino-N-(2-phenylpropan-2-yl)-6-(prop-1-yn-1-yl)-7H-pyrrolo[2,3-d]pyrimidine-5-carboxamide] | 4.7 |
| 0.37 | 20 | 5.6 | C=CC(=O)N1C[C@H](n2c(C#CC)c(C(=O)N[C@H](CC)c3ccccc3)c3c(N)ncnc32)C[C@@H]1C [Example 4, 7-((3R,5S)-1-acryloyl-5-methylpyrrolidin-3-yl)-4-amino-N—((R)-1-phenylpropyl)-6-(prop-1-yn-1-yl)-7H-pyrrolo[2,3-d]pyrimidine-5-carboxamide] | 5.6 |
| 0.38 | 14 | 4 | C=CC(=O)N1C[C@H](n2c(C#CC)c(C(=O)NC(C)(C)c3ccccc3F)c3c(N)ncnc32)C[C@@H]1C [Example 5, 7-((3R,5S)-1-acryloyl-5-methylpyrrolidin-3-yl)-4-amino-N-(2-(2-fluorophenyl)propan-2-yl)-6-(prop-1-yn-1-yl)-7H-pyrrolo[2,3-d]pyrimidine-5-carboxamide] | 7 |
| < 0.3 | 28 | 10 | C=CC(=O)N1C[C@H](n2c(C#CC)c(C(=O)N[C@H](C)c3cccc(Cl)c3)c3c(N)ncnc32)C[C@@H]1C [Example 6, 7-((3R,5S)-1-acryloyl-5-methylpyrrolidin-3-yl)-4-amino-N—((R)-1-(3-chlorophenyl)ethyl)-6-(prop-1-yn-1-yl)-7H-pyrrolo[2,3-d]pyrimidine-5-carboxamide] | 8.5 |
| < 0.3 | 26 | 14 | C=CC(=O)N1C[C@H](n2c(C#CC)c(C(=O)N[C@@H](c3ccccc3)C(F)(F)F)c3c(N)ncnc32)C[C@@H]1C [Example 8, 7-((3R,5S)-1-acryloyl-5-methylpyrrolidin-3-yl)-4-amino-6-(prop-1-yn-1-yl)-N—((S)-2,2,2-trifluoro-1-phenylethyl)-7H-pyrrolo[2,3-d]pyrimidine-5-carboxamide] | 9.7 |
| 0.32 | 24 | 4.2 | C=CC(=O)N1C[C@H](n2c(C#CC3CC3)c(C(=O)NC(C)(C)c3ccccc3)c3c(N)ncnc32)C[C@@H]1C [Example 9, 7-((3R,5S)-1-acryloyl-5-methylpyrrolidin-3-yl)-4-amino-6-(cyclopropylethynyl)-N-(2-phenylpropan-2-yl)-7H-pyrrolo[2,3-d]pyrimidine-5-carboxamide] | 6.2 |
